Test results reported in article PMC12881670, “Investigation into ligand selectivity and bias at the formyl peptide receptor family” (The Journal of Pharmacology and Experimental Therapeutics, 2025).

What was measured:
[1] = test system: FPR1; details: at 100 nM; cited from earlier work
[2] = target: T1, Mm_Fpr2 (Mus musculus, UniProt O88536); assay: BRET receptor-RLuc8 interaction with Arrestin 3-YFP; format: cell-based
T1 construct: expressed in transfected cells
T1 sequence (O88536 1-351): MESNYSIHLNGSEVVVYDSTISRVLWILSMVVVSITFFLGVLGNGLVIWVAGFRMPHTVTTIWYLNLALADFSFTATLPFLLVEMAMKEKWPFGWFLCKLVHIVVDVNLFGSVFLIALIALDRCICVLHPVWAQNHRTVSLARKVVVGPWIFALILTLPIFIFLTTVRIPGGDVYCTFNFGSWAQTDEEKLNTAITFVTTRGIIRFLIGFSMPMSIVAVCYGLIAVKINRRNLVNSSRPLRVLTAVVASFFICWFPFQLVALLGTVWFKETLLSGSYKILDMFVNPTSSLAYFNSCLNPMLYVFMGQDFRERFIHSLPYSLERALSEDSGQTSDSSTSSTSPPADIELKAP
Protocol: (§1) BRET1 assays to measure FPR interaction with Venus-mGsi and Arrestin 3-yellow fluorescent protein (YFP) were performed as previously described.[31]^,[32] Briefly, all FPRs C-terminally fused to Renilla Luciferase (donor, RLuc8) were transiently transfected along with either Venus-mGsi or YFP-Arrestin 3 (acceptor) at a ratio of 1:4. 24 hours post transfection, cells were replated into white-walled, 96-well plates and cultured for a further 24–48 hours. On the day of experimentation, growth media was aspirated and replaced with 80 μl Hanks Buffered Saline Solution and equilibrated for 30 minutes. Coelenterazine h was added to each well to a final concentration of 5 μM for 5 minutes before the addition of each compound, and the plate was incubated for a further 10 minutes at 37 °C before being read on a ClarioStar Plus, with luminescence measured at 480/20 nm (donor) and 530/20 (acceptor). The BRET ratio (acceptor/donor) was determined, and the background (untreated) subtracted to give the N-BRET value.
(§2) All data were analyzed using GraphPad Prism using the nonlinear regression log(agonist) versus response (3 parameters) function for all assays, except binding, which was analyzed using the One site-FitlogIC50 function. Bias calculations were carried out following IUPHAR guidelines as described,[27]^,[37] and data were presented as the Δ Activity ratio (Log[EmaxB/EC50B])-(Log[EmaxA/EC50A]).

[3] = target: T2, Mm_Fpr1 (Mus musculus, UniProt P33766); assay: as above; format: cell-based
T2 construct: expressed in transfected cells
T2 sequence (P33766 1-364): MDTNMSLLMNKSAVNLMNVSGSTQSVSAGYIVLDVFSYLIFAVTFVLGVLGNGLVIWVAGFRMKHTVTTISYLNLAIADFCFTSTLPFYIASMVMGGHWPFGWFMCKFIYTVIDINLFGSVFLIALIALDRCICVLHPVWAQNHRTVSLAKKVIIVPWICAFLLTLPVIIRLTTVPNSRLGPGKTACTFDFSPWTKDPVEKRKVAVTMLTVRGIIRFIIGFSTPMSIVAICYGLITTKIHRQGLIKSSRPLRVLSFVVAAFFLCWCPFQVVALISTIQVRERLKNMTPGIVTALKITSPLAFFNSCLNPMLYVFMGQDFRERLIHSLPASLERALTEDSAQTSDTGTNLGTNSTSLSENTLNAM
Protocol: as §1, §2

[4] = target: T3, Hs_FPR1 (Homo sapiens, UniProt P21462); assay: as above; format: cell-based
T3 construct: expressed in transfected cells
T3 sequence (P21462 1-350): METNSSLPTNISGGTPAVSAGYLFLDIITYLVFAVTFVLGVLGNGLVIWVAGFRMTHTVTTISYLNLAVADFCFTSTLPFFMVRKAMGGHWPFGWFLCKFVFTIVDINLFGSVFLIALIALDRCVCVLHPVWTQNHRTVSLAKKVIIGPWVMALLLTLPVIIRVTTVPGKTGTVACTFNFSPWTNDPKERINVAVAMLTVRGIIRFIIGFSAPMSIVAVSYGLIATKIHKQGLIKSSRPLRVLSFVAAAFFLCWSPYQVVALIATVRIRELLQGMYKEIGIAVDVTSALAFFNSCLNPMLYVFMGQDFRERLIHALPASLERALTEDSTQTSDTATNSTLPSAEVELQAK
Protocol: as §1, §2

[5] = target: T4, Hs_FPR2 (Homo sapiens, UniProt P25090); assay: as above; format: cell-based
T4 construct: expressed in transfected cells
T4 sequence (P25090 1-351): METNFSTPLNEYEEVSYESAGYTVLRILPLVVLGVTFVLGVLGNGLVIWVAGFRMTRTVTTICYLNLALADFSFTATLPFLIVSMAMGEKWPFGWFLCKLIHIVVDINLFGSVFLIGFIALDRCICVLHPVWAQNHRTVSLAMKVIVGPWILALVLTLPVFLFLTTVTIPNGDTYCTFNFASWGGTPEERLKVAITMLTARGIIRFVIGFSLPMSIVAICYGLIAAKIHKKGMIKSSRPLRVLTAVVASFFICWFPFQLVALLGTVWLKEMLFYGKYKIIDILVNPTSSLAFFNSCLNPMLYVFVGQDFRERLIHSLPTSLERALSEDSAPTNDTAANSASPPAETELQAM
Protocol: as §1, §2

[6] = target: T2, Mm_Fpr1; assay: Internalization of FLAG-tagged receptors by flow cytometry; format: cell-based; details: Mm_Fpr1, 30 min, relative to 1 μM WKYMVm
Protocol: Internalization of FPRs was measured by flow cytometry.[30] Briefly, cells were incubated with Alexa Fluor 657 conjugated M1 antiflag antibody (Sigma-Aldrich Cat# F3040, RRID:AB_439712) for 30 minutes at 37 °C to label surface receptors. Cells were then incubated with the indicated concentration of ligand before washing in PBS/0.04% EDTA to remove any remaining surface antibody. Remaining fluorescence was then measured using flow cytometry on either a BD FACScalibur or Attune, recording 5000 gated events. […] As a control, some samples were left untreated, and “strip only” was measured as a readout of constitutive endocytosis, and this value was subtracted from the data. Vehicle control (0.1% DMSO) had no effect on internalization of receptors.
as §2

[7] = target: T1, Mm_Fpr2; assay: BRET receptor-RLuc8 interaction with Venus-mGsi; format: cell-based
Protocol: as §1, §2

[8] = target: T2, Mm_Fpr1; assay: BRET receptor-RLuc8 interaction with Venus-mGsi; format: cell-based
Protocol: as §1, §2

[9] = target: T3, Hs_FPR1; assay: BRET receptor-RLuc8 interaction with Venus-mGsi; format: cell-based
Protocol: as §1, §2

[10] = target: T4, Hs_FPR2; assay: BRET receptor-RLuc8 interaction with Venus-mGsi; format: cell-based
Protocol: as §1, §2

[11] = test system: formyl peptide receptor family (Hs_FPR1, Hs_FPR2, Mm_Fpr1, Mm_Fpr2); assay: Summary of main findings: receptor subtype selectivity and ligand bias across all readouts; parameters: species or system human and mouse; details: summary grade of ligand bias relative to WKYMVm; key not given
Description: To determine ligand bias, a reference ligand is required, that is, “balanced” for the pathways tested.[37] […] We then used measurements of the activity ratio (Log (Emax/EC50)) for each receptor, ligand, and pathway in an attempt to observe any ligand bias (Fig. 6).

[12] = target: T1, Mm_Fpr2; assay: ERK1/2 phosphorylation by Western blotting; format: cell-based
Protocol: (§3) ERK phosphorylation was detected by Western blotting as previously described.[30] Briefly, HEK293 cells stably expressing FLAG-tagged FPRs were plated into 12-well culture plates until 90% confluent. On the day of the experiment, culture media was replaced with serum-free Dulbecco’s modified Eagle’s medium and incubated for 2 hours before stimulation with the indicated compounds. After 7 minutes, the media was removed and stimulation terminated by the addition of 100 μl sample buffer (0.5% SDS, Tris (pH 6.8), glycerol, at >90 °C).
as §2

[13] = target: T2, Mm_Fpr1; assay: ERK1/2 phosphorylation by Western blotting; format: cell-based
Protocol: as §3, §2

[14] = target: T3, Hs_FPR1; assay: ERK1/2 phosphorylation by Western blotting; format: cell-based
Protocol: as §3, §2

[15] = target: T4, Hs_FPR2; assay: ERK1/2 phosphorylation by Western blotting; format: cell-based
Protocol: as §3, §2

Structure (SMILES): CSCC[C@H](NC(=O)[C@@H](NC(=O)[C@H](CCSC)NC(=O)[C@H](Cc1ccc(O)cc1)NC(=O)[C@H](CCCCN)NC(=O)[C@@H](N)Cc1c[nH]c2ccccc12)C(C)C)C(N)=O [WKYMVM]
- arrestin recruitment to FPR1, Pathhunter [1]: neither WKYMVM nor ACT-389949 resulted in recruitment
- Emax [2]: 94.3%
- Emax [3]: 83.1%
- Emax [4]: 75%
- Emax [5]: 94.8%
- agonist-induced internalization (words) [6]: full agonists
- Emax [7]: 87.9%
- Emax [8]: 37.5%
- Emax [9]: 44.1%
- Emax [10]: 79.2%
- Bias [11]: No
- Emax at 1 µM [12]: 128%
- Emax at 1 µM [13]: 118%
- Emax at 1 µM [14]: 141%
- Emax at 1 µM [15]: 125%
